Reference: patent US11191798B2, “Extracts of Andrographis paniculata, methods for preparation and use thereof” (NUTRITION SCIENCE PARTNERS LIMITED, priority 2016, dated 2021)

Experiments:
FGF2 = FGF2 mRNA expression in epithelial cell T84 (Assay 5); assay type: cell-based, human; conditions: about 24 hours
Procedure: (§1) Enhancement of EGF and FGF expression were investigated in a human HT-29 and T84 cell lines.
(§2) Two adherent epithelial cell lines, HT29 and T84, were used in the assay. For sustaining cell culture, HT29 cells were incubated in cell culture dish with McCoy's 5a Medium containing 10% FBS, and T84 cells were incubated with DMEM/F-12 (1:1) medium containing 5% FBS. All cells were incubated at 37° C. with 5% CO2. Sub-culture was performed when cells reached 90% confluence.
(§3) For the assay, the cells were trypsinized and suspended in culture medium. The cell density was determined and adjusted to 1×10^6 cells/mL. Then, the cells were seeded into a 96-well plate and incubated at 37° C. with 5% CO2 overnight.
(§4) The two Andrographis paniculata extracts, Standard 1 and Example 1, were serially diluted in DMSO and further diluted in medium. Diluted solution was added into wells. The final concentrations for Standard 1 were: 300, 100, 30 and 10 μg/mL. The final concentrations for Example 1 were: 100, 30, 10 and 1 μg/mL. […]
(§5) Total RNA was extracted using RNeasy 96 kit (QIAGEN) and cDNA was synthesized from RNA template using High Capacity cDNA RT kit (Applied Biosystems). Quantitative real-time PCR detection of gene expression was using SYBR Premix Ex Taq TM II (TakaRa). Expression of genes analyzed by q-PCR was normalized to GAPDH using the fold change (2^−ΔΔCT) method. […]

EGF [1] = experiment: EGF mRNA expression in epithelial cell line T84; assay type: cell-based, human; conditions: about 24 hours
Procedure: as §1, §2, §3, §4, §5

FGF1 [2] = experiment: FGF1 mRNA expression in human T84 cell line (Assay 6); assay type: cell-based; conditions: about 24 hours
Procedure: Enhancement of FGF1 expression of Example 7 and the four ingredients AND, NAND, DAND, and DDAND was investigated in human T84 cell line.
The adherent epithelial cell line T84 was used in the assay. For sustaining cell culture, T84 cells were incubated with DMEM/F-12 (1:1) medium containing 5% FBS at 37° C. with 5% CO2. Sub-culture was performed when cells reached 90% confluence.
as §3
The two Andrographis paniculata extracts, Standard 1 and Example 7, and AND, NAND, DAND, DDAND, and the mixture of them (named as the mixture of 4 markers, wherein the amounts of AND, NAND, DAND, and DDAND were 69%, 11%, 5%, and 15%, respectively, by weight relative to the weight of the mixture) were serially diluted in DMSO and further diluted in medium. Diluted solution was added into wells. The final concentrations for Standard 1 were: 300 and 100 μg/mL. The final concentration for Example 7 was: 100 μg/mL. The final concentration for NAND, DAND and DDAND was 10 μg/mL and AND was 40 μg/mL. The final concentrations for mixture of 4 markers were: 100 and 30 μg/mL. The plate was incubated at 37° C. with 5% CO2 for about 24 hours. The supernatants were removed and 150 μL RLT buffer was added into each well. The plate was stored at −80° C. until RNA extraction.
Total RNA was extracted using RNeasy 96 kit (QIAGEN) and cDNA was synthesized from RNA template using High Capacity cDNA RT kit (Applied Biosystems). Quantitative real-time PCR detection of gene expression was using SYBR Premix Ex Taq TM II (TakaRa). Expression of genes analyzed by q-PCR was normalized to GAPDH using the fold change (2^−ΔΔCT) method. The formula used in the calculation is shown as follows: Fold=2^−ΔΔCT=2^−[(CT^test sample^−CT^test sample_GAPDH^)−(CT^minimum^−CT^minimum_GAPDH^)] where CTtest sample is the CT value of target gene in cells treated with the test samples; CTtest sample-GAPDH is the CT value of GAPDH gene in cells treated with the test samples; CTminimum is the CT value of target gene in cells treated without test samples, and CTminimum-GAPDH is the CT value of GAPDH gene in cells treated without test samples.

EGF [3] = experiment: EGF mRNA expression in epithelial cell line HT29; assay type: cell-based, human; conditions: about 24 hours
Procedure: as §1, §2, §3, §4, §5

FGF1 [4] = experiment: FGF1 mRNA expression in epithelial cell T84 (Assay 5); assay type: cell-based, human; conditions: about 24 hours
Procedure: as §1, §2, §3, §4, §5

DNBS-induced rat colitis = DNBS-induced rat colitis prophylactic model; assay type: in vivo, Wistar rats
Procedure: Assay 7: The In Vivo Efficacy of Andrographis Extract in a DNBS-Induced Rat Colitis Prophylactic Model 1. Materials 1.1. Test Compounds and Formulation Methods • Test articles: Two Andrographis paniculata extracts, Example 10 used in Experiment 1 and Example 11 used in Experiment 2. • Control drugs: Standard 1; and Sulfasalazine (SASP), Sigma-Aldrich, Cat S0883.
Oral suspension of the test articles and Standard 1 were prepared as follows: the test articles and Standard 1 were respectively weighed and added into a 50 mL centrifuge tube. 0.5% sodium carboxymethylcellulose (0.5% CMC-Na) was added. Sonicate for 15 min to give suspensions with desired concentration. The fresh-made formulation was stored away from light, and homogenized thoroughly before use. The administration volume was 10 ml/kg.
Oral suspension of SASP was prepared as follows: SASP was weighed and added into a 50 mL centrifuge tube. 0.5% CMC-Na was added. Sonicate for 15 min to give 30 mg/mL suspension. The fresh-made formulation was stored away from light, and homogenized thoroughly before use. The administration volume was 10 ml/kg.
Male Wistar rats, 110-130 g, were purchased from Shanghai SLAC Laboratory Animal Co. Ltd.
Wistar rats were randomized assigned. The fasting rats were anesthetized with 25 mg/kg Zoletil and 0.5 mg/kg xylazine. And colitis was induced by intracolonic administration of 10 mg or 12 mg DNBS dissolved in 0.25 mL of 30% ethanol (v/v). The animals in naive control group were instilled with 30% ethanol only.
• Body weight: Body weights of animals were checked daily on and after grouping. • Diarrhea score: Stool consistency of the animals was monitored and scored daily from the 3rd day after the model induction. Evaluation criteria: 0=formed, 1=moist/sticky, 2=loose, 3=liquid. • Colon weight and length measurement: Rats were sacrificed 4 h post the last dosing on the 6th day. The abdomen was opened by a midline incision. Adhesion degree of colon and other organs was observed. The colon (from cecum end to the anus) was emptied of its content, rinsed with saline. The weight and length of the colon were measured, and then the colon ratio (colon weight/colon length) was calculated. • Histopathology analysis: Proximal colon with obvious ulcer was made into Swiss Rolls, fixed in 10% neutral formalin solution, dehydrated with xylene, embedded in paraffin, sectioned, and stained with hematoxylin and eosin (H&E). […] The severity of lesion was graded based on a semi-quantitative scale using the sum of scores of the following 10 evaluation indicators (see table 7).
All of the data were presented as mean±SD.
Body weight data were analyzed with repeated-measures ANOVA analysis by GraphPad Prism 6.0 software. Fisher's Least Significant Difference (LSD) test was used to perform significance analysis. p value was calculated. *p<0.05 refers to significant difference between vehicle control group and each of the treated groups. **p<0.01 refers to extremely significant difference between vehicle control group and each of the treated groups.
The colon ratio inhibition of each animal was calculated by the following formula, wherein CW refers to colon weight, CL refers to colon length:
The statistical analysis of the data of colon length and colon ratio was performed by Graphpad Prism 6.0 software. Unpaired t test or Mann-Whitney test were applied to analyze the significance analysis between test article treated groups and vehicle treated group, based on the normality of the data.

[5] = Experiment 1, 300 mg/kg PO, mean±SD

**Q.** Which “mRNA expression of FGF2 in T84 cells” value (FGF2) does the source give for `C=C1CC[C@@H]2[C@](C)(CO)[C@H](O)CC[C@@]2(C)[C@@H]1C/C=C1/C(=O)OC[C@H]1O` [AND, Andrographolide] here?
**A.** had no similar effect

**Q.** And the “mRNA expression of EGF in T84 cells” value (EGF [1])?
**A.** increased

**Q.** What about the FGF1 up-regulation effect (FGF1 [2]; T84, 40 μg/mL) of the same compound?
**A.** did not show similar FGF1 up-regulation effect

**Q.** And the “mRNA expression of EGF in HT29 cells” value (EGF [3])?
**A.** increased

**Q.** What about the “mRNA expression of FGF1 in T84 cells” value (FGF1 [4]) of the same compound?
**A.** had no similar effect

**Q.** `C=C1CC[C@@H]2[C@](C)(CO)[C@H](O)CC[C@@]2(C)[C@@H]1CCC1=CCOC1=O` [DAND, 14-deoxyandrographolide] was tested. Which FGF1 up-regulation effect (FGF1 [2]; T84, 10 μg/mL) did it give?
**A.** did not show similar FGF1 up-regulation effect

**Q.** How did the FGF1 up-regulation effect (FGF1 [2]; T84, 10 μg/mL) turn out when `C=C1CCC2C(C)(CO)C(O)CCC2(C)C1/C=C/C1=CCOC1=O` (stereo not shown) [DDAND, 14-Deoxy-11,12-dehydroandrographolide] was run?
**A.** did not show similar FGF1 up-regulation effect

**Q.** Which FGF1 up-regulation effect (FGF1 [2]; T84, 10 μg/mL) does the source give for `C=C1CC[C@@H]2[C@](C)(CO[C@@H]3O[C@H](CO)[C@@H](O)[C@H](O)[C@H]3O)CCC[C@@]2(C)[C@@H]1CCC1=CCOC1=O` [NAND, Neoandrographolide] here?
**A.** did not show similar FGF1 up-regulation effect

**Q.** With `O=C(O)c1cc(/N=N/c2ccc(S(=O)(=O)Nc3ccccn3)cc2)ccc1O` [SASP, Sulfasalazine] as the compound, how does the colon histopathology findings (DNBS-induced rat colitis; 300 mg/kg/day, 8 samples) read?
**A.** five samples showed severe mucosal erosion and inflammatory cell infiltration

**Q.** And the “Colon ratio inhibition, %” value (DNBS-induced rat colitis; Experiment 1, 300 mg/kg PO)?
**A.** 44.5%

**Q.** What about the “Colon ration CW/CL (%)” value (DNBS-induced rat colitis; [5]) of the same compound?
**A.** 0.0846 ± 0.0089 %

**Q.** And the “Crypt abscesses, histopathological score” value (DNBS-induced rat colitis; [5])?
**A.** 0.1 ± 0.4

**Q.** And the “Degree of cellular infiltrate, histopathological score” value (DNBS-induced rat colitis; [5])?
**A.** 2.1 ± 0.8

**Q.** What about the “Degree of erosion/ulcer, histopathological score” value (DNBS-induced rat colitis; [5]) of the same compound?
**A.** 1.6 ± 1.4

**Q.** What about the “Degree of mucosa edema, histopathological score” value (DNBS-induced rat colitis; [5]) of the same compound?
**A.** 1.6 ± 0.9

**Q.** What about the “Epithelium hyperplasia, histopathological score” value (DNBS-induced rat colitis; [5]) of the same compound?
**A.** 0.8 ± 0.5

**Q.** What about the “Goblet cell depletion, histopathological score” value (DNBS-induced rat colitis; [5]) of the same compound?
**A.** 0.9 ± 0.4

**Q.** And the “Muscle thickening, histopathological score” value (DNBS-induced rat colitis; [5])?
**A.** 1.4 ± 0.9

**Q.** And the “Severe destruction for erosion (%), histopathological score” value (DNBS-induced rat colitis; [5])?
**A.** 0.8 ± 0.7

**Q.** What about the “Severely affected in infiltration (%), histopathological score” value (DNBS-induced rat colitis; [5]) of the same compound?
**A.** 1.6 ± 0.7

**Q.** And the “The sum of score (colon histopathology)” value (DNBS-induced rat colitis; [5])?
**A.** 12.5 ± 6.3

**Q.** And the “Total area affected (%), histopathological score” value (DNBS-induced rat colitis; [5])?
**A.** 1.6 ± 0.7
